In PubChem BioAssay (NCI):
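The compound was tested at five concentrations on cells cultured in 96-well plates, with a 48-hour exposure period. TGI marks complete inhibition of growth.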

Columns and labels:
Test in all cases: NCI-60 cell line screen, 48 h
[1] = system: DU-145 prostate
[2] = system: HOP-92 NSCLC
[3] = system: OVCAR-8 ovarian
[4] = system: A498 renal
[5] = system: NCI-H226 lung
[6] = system: HCT-116 colon
[7] = system: PC-3 prostate
[8] = system: CAKI-1 renal
[9] = system: SF-295 CNS
[10] = system: SK-MEL-2 melanoma
[11] = system: SF-539 CNS
[12] = system: COLO 205 colon
[13] = system: SK-MEL-5 melanoma
[14] = system: SNB-19 CNS
[15] = system: LOX IMVI melanoma
[16] = system: SW-620 colon
[17] = system: MDA-N
[18] = system: NCI-H23 lung
[19] = system: ACHN renal
[20] = system: OVCAR-4 ovarian

Measured: TGI

Cc1[nH]c(=O)[nH]c(=S)c1C(=O)NC(C)(CO)CO
> 100 µM: all assays above

CCCCn1c(C)c(C(=O)OCC)c2cc(OCc3ccc(C(=O)Nn4c(C)ccc4C)cc3)c(Br)cc21
> 100 µM: all assays above

Oc1cc(O)c2c(c1)O[C@H](c1cc(O)c(O)c(O)c1)[C@H](O)C2
29.6 µM: [3]
37.6 µM: [13]
33.2 µM: [12]
48.9 µM: [19]
40.9 µM: [17]
32.9 µM: [16]
42.9 µM: [7]
46.6 µM: [20]
48.7 µM: [11]
40.3 µM: [6]
65.3 µM: [18]
83.7 µM: [9]
77.6 µM: [15]
28.9 µM: [10]
> 100 µM: all other assays above

CC(=O)c1cccc2c1CC1(C2)Cc2ccc3c(c2C1=O)CCC3 (stereo not given)
92.4 µM: [12]
64.2 µM: [2]
33.7 µM: [13]
> 100 µM: all other assays above

N#CC1=C(N2CCCC2)NC(=O)CC1=O
> 100 µM: all assays above

O=C1SCC(O)=C1/C=N/Nc1nc2ccccc2o1
46.6 µM: [3]
63.9 µM: [13]
86.3 µM: [18]
81 µM: [12]
81.7 µM: [2]
76.6 µM: [5]
50 µM: [6]
72.4 µM: [9]
88.6 µM: [7]
40.8 µM: [11]
> 100 µM: all other assays above

Cc1ccc2nc3ccccc3c(C3C4C(=O)N(c5ccc(Br)cc5Cl)C(=O)C4ON3C(C(N)=O)c3ccccc3)c2c1 (stereo not given)
10.5 µM: [8]
23.6 µM: [17]
6.86 µM: [18]
15.3 µM: [19]
> 25 µM: all other assays above

COC1(OC)C2(Cl)CCC1(Cl)C(OC(C)=O)C2 (stereo not given)
> 100 µM: all assays above

O=C1NC(Nc2cccc(Cl)c2)=N/C1=C\c1ccc(Cl)c(Cl)c1
14.2 µM: [6]
11.4 µM: [2]
22.2 µM: [11]
21 µM: [14]
17 µM: [19]
17.2 µM: [5] | [9]
20.6 µM: [1]
6.77 µM: [10]
15.8 µM: [17]
19.1 µM: [13]
5.49 µM: [20]
14.1 µM: [18]
19.6 µM: [16]
4.26 µM: [15]
16.3 µM: [4]
18.4 µM: [8]
16 µM: [3]
13.1 µM: [12]
13.3 µM: [7]
